Legend:
Rattus norvegicus [1] = organism: Rattus norvegicus; settings: Membrane, 10 uM
[2] = Displacement of [3H]flunitrazepam from benzodiazepine receptor in rat neuronal membranes at 10 uM
[3] = Potentiation of GABA-induced current in rat cortical neurons at 10 uM by whole-cell patch clamp technique; assay type: functional
Rattus norvegicus [4] = test: Neurotoxicity in orally dosed Wistar rat after 1 hr by RotoRod test; assay type: toxicity, organism-based; settings: in vivo, po
Rattus norvegicus [5] = test: Anticonvulsant activity in orally dosed Wistar rat after 0.5 hr by PTZ test; assay type: functional; settings: po
[6] = Potentiation of GABA-induced current in rat cortical neurons at 100 uM by whole-cell patch clamp technique; assay type: functional
[7] = Inhibition of voltage dependent sodium current in rat cortical neurons at 100 uM by whole-cell patch clamp technique; assay type: functional
Rattus norvegicus [8] = test: Anticonvulsant activity in orally dosed Wistar rat after 1 hr by PTZ test; assay type: functional; settings: po
Rattus norvegicus [9] = test: Anticonvulsant activity in orally dosed Wistar rat after 2 hrs by MES test; assay type: functional; settings: po
Rattus norvegicus [10] = test: Anticonvulsant activity in orally dosed Wistar rat after 1 hr by MES test; assay type: functional; settings: po
Rattus norvegicus [11] = test: Anticonvulsant activity in orally dosed Wistar rat after 2 hrs by PTZ test; assay type: functional; settings: po
Rattus norvegicus [12] = test: Neurotoxicity in orally dosed Wistar rat after 2 hrs by RotoRod test; assay type: toxicity, organism-based; settings: in vivo, po
Rattus norvegicus [13] = test: Anticonvulsant activity in orally dosed Wistar rat after 4 hrs by MES test; assay type: functional; settings: po
Rattus norvegicus [14] = test: Neurotoxicity in orally dosed Wistar rat after 0.5 hrs by RotoRod test; assay type: toxicity, organism-based; settings: in vivo, po
[15] = Inhibition of voltage dependent sodium current in rat cortical neurons at 10 uM by whole-cell patch clamp technique; assay type: functional
Rattus norvegicus [16] = test: Anticonvulsant activity in orally dosed Wistar rat after 3 hrs by PTZ test; assay type: functional; settings: po
Rattus norvegicus [17] = test: Anticonvulsant activity in orally dosed Wistar rat after 0.5 hrs by MES test; assay type: functional; settings: po
Rattus norvegicus [18] = test: Neurotoxicity in orally dosed Wistar rat after 4 hrs by RotoRod test; assay type: toxicity, organism-based; settings: in vivo, po
Rattus norvegicus [19] = test: Anticonvulsant activity in orally dosed Wistar rat after 0.3 hrs by PTZ test; assay type: functional; settings: po

Compound	inhibition (Rattus norvegicus [1]) [%]	Activity [3] [%]	ED50 (Rattus norvegicus [4]) [mg/kg]	Activity [6] [%]	inhibition at 100 µM [7] [%]	ED50 (Rattus norvegicus [8]) [mg/kg]	also measured
CN1C(=O)CN=C(c2ccccc2)c2cc(Cl)ccc21 [DIAZEPAM]	> 99	216					Ki [2]: 6.8 nM
Cc1cccc(-c2noc(Cn3cncn3)n2)c1	-1.1	110	219	387	22		ED50 (Rattus norvegicus [5]): 95.9 mg/kg
Cc1ccc(-c2noc(Cn3cncn3)n2)cc1			171			76.5	ED50 (Rattus norvegicus [9]): > 70 mg/kg
c1ccc(-c2nc(Cn3cncn3)no2)cc1	-3.1	131	335	210	9	25.5	ED50 (Rattus norvegicus [10]): 14.6 mg/kg
c1ccc(-c2noc(Cn3cncn3)n2)cc1	2.7			286	8		ED50 (Rattus norvegicus [11]): 37 mg/kg; ED50 (Rattus norvegicus [12]): 77 mg/kg; ED50 (Rattus norvegicus [13]): 13.1 mg/kg
Fc1cccc(-c2noc(Cn3cncn3)n2)c1	-1.6		128	212	12	39.2	ED50 (Rattus norvegicus [10]): 26.2 mg/kg
Clc1ccc(-c2nc(Cn3cncn3)no2)cc1						> 100	
Fc1cccc(-c2nc(Cn3cncn3)no2)c1						73.9	ED50 (Rattus norvegicus [14]): < 250 mg/kg
c1ccc(-c2noc(Cn3ccnc3)n2)cc1	0.6			134	83		ED50 (Rattus norvegicus [9]): 5.8 mg/kg; inhibition at 10 µM [15]: 30%
Clc1ccc(-c2noc(Cn3ccnc3)n2)cc1	0.2	103	> 500	298	72		
Cc1cccc(-c2nc(Cn3cncn3)no2)c1							ED50 (Rattus norvegicus [14]): > 50 mg/kg; ED50 (Rattus norvegicus [16]): > 50 mg/kg; ED50 (Rattus norvegicus [17]): < 50 mg/kg
Fc1ccccc1-c1noc(Cn2cncn2)n1	2.2			191			ED50 (Rattus norvegicus [9]): 44.3 mg/kg; ED50 (Rattus norvegicus [11]): < 50 mg/kg; ED50 (Rattus norvegicus [12]): < 250 mg/kg
Fc1ccc(-c2nc(Cn3cncn3)no2)cc1							ED50 (Rattus norvegicus [18]): < 150 mg/kg; ED50 (Rattus norvegicus [19]): 15.2 mg/kg
Clc1ccc(-c2noc(Cn3cncn3)n2)cc1	-8	141	< 100	553	31		ED50 (Rattus norvegicus [10]): 21.8 mg/kg; ED50 (Rattus norvegicus [11]): 29.5 mg/kg; ED50 (Rattus norvegicus [17]): 47.2 mg/kg
